According to PMC12333015, “Profiling the Impact of mGlu7/Elfn1 Protein Interactions on the Pharmacology of mGlu7 Allosteric Modulators” (ACS Chemical Neuroscience, 2025):
Where two headings read alike, the source gives them in different places.

Assays:
[1] = biological target: T1, rat mGlu7 (Rattus norvegicus, UniProt P35400); experiment: Thallium flux assay, mGlu7/GIRK HEK293 cells cocultured with pcDNA3 vector control cells; type: cell-based; settings: for baseline Resp ± SEM, pcDNA / Maximal Resp ± SEM, pcDNA / response below baseline at inactive L-AP4 concentrations / % inhibition Resp ± SEM, pcDNA: 10 μM compound; for baseline Resp ± SEM, pcDNA: average response at bottom three L-AP4 concentrations, Percent L-AP4/pcDNA/DMSO Max; for Maximal Resp ± SEM, pcDNA: average response at top two L-AP4 concentrations, normalized to L-AP4 max with pcDNA/DMSO; for response below baseline at inactive L-AP4 concentrations: observed regardless of the presence of Elfn1; for % inhibition Resp ± SEM, pcDNA: of maximal L-AP4 response; for IC50: compound concentration-response in presence of 600 μM L-AP4 (EC80), read-out: compound pIC50 ± SEM, pcDNA (converted); for compound Min Resp ± SEM, pcDNA: minimal curve fit response, 600 μM L-AP4, maximal inhibition at 30 μM compound, normalized to 600 μM L-AP4 response; for Emax: HEK293, read-out: PAM Maximal response, pcDNA; for Emax / EC50: PAM concentration-response at an EC20 concentration of L-AP4; for Fold potentiation, pcDNA: fold potentiation of an EC20 concentration of L-AP4
T1 construct: expressed in transfected cells; host or cells: HEK293A cells stably expressing mGlu7 and GIRK1/2
T1 sequence (P35400 35-915): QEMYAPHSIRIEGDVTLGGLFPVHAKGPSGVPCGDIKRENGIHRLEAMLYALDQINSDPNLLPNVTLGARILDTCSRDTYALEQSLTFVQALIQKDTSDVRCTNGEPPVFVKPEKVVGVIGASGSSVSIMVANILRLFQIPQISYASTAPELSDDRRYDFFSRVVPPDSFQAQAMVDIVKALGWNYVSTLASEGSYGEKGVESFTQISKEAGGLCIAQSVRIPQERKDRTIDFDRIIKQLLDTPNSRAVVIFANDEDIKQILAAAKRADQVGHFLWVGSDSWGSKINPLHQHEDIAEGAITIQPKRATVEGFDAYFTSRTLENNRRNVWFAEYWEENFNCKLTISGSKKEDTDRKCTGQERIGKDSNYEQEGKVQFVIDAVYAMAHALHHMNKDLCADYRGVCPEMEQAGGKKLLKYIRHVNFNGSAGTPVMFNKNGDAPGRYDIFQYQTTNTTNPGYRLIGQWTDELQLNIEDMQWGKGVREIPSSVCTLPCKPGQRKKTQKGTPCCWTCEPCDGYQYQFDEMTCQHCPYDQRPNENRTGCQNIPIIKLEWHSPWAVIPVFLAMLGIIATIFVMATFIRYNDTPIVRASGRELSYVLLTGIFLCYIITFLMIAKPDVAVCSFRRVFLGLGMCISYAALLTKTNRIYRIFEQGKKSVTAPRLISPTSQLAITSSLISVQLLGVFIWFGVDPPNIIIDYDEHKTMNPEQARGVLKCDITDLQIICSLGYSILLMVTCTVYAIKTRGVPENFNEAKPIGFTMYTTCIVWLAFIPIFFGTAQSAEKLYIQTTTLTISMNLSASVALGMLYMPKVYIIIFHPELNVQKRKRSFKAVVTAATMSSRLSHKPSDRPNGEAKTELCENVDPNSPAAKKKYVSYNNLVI
Excerpt: (§1) We began our evaluation of mGlu7 ligands in the presence and absence of Elfn1 by using a coculture system as previously described , with several modifications (Figure ). Cells expressing rat mGlu7 and coexpressing G protein inwardly rectifying potassium (GIRK) channels 1 and 2 were cocultured with cells expressing either an empty pcDNA3 vector control or a plasmid containing Elfn1 in the pcDNA3 backbone. We then evaluated the activity of the orthosteric agonist L-AP4 and measured effects on maximal response and pEC50. All responses were normalized to the maximal effect of L-AP4 in the presence of the pcDNA3 control plasmid.
(§2) 2 Assay design and workflow. (Left panel) Cells expressing rat mGlu7/GIRK (pink) were cocultured with pcDNA3 (blue) or Elfn1 (purple). […] (Right panel) The effect on the concentration–response curve in the presence (purple) or absence (blue) of Elfn1 can be seen by a change in efficacy, potency, and/or basal response.
(§3) HEK293A cells stably expressing mouse Elfn1 or pcDNA3 were maintained in growth medium containing 90% Dulbecco’s Modified Eagle Media (DMEM), 10% fetal bovine serum (FBS), 100 units/mL penicillin/streptomycin, 20 mM HEPES, 1 mM sodium pyruvate, 2 mM L-glutamine, 1× nonessential amino acids, and 700 μg/mL G418 sulfate. HEK mGlu7/GIRK cells were maintained in a growth medium with 90% DMEM/F12, 10% dialyzed FBS, 100 units/mL penicillin/streptomycin, 20 mM HEPES, 1 mM sodium pyruvate, 2 mM L-glutamine, 1× nonessential amino acids, 700 μg/mL G418 sulfate, and 600 ng/mL puromycin. All cell culture reagents were purchased from Invitrogen (Carlsbad, CA).
(§4) Thallium flux assays were performed as previously described. A mixture of HEK293A mGlu7/GIRK cells and pcDNA3 or Elfn1-expressing HEK293A cells (5000/15,000 cells/20 μL/well for agonist and PAM experiments; 7500/15,000 cells/20 μL/well for NAM experiments) was seeded in 384-well, amine-coated assay plates (Greiner Bio-One, Monroe, NC). Cells were incubated overnight in a humidified 5% CO2 cell culture incubator at 37 °C. […] Following a 1 h incubation at room temperature, the dye loading solution was replaced with 20 μL/well assay buffer and the plates were loaded into a Hamamatsu FDSS 7000 (Bridgewater, NJ). […] Thallium flux data were analyzed by first dividing each point in each wave by the first point in that wave and then subtracting the average of the vehicle control response. The slopes of these vehicle control-subtracted waves were calculated over ten data points beginning 2 s after thallium stimulus addition and fit to a three-parameter logistic equation in GraphPad Prism (La Jolla, CA). In most cases, the final data were normalized to the response of the mGlu7/pcDNA3 with vehicle and 5 mM L-AP4 unless otherwise noted. Potency (pEC50) and maximum responses (E max) induced by compounds were determined using a four-parameter logistical equation in Prism. Basal activity was calculated with data points at the three lowest test concentrations. Maximum activity was calculated with data points at two highest concentrations. All experiments were replicated at least three times in duplicate or triplicate.

[2] = biological target: T2, mGlu7/Elfn1 (Rattus norvegicus, UniProt P35400); experiment: Thallium flux assay, mGlu7/GIRK HEK293 cells cocultured with Elfn1-expressing cells; type: cell-based, mouse Elfn1; settings: for baseline Resp ± SEM, Elfn1 / Maximal Resp ± SEM, Elfn1 / % inhibition Resp ± SEM, Elfn1: 10 μM compound; for baseline Resp ± SEM, Elfn1: average response at bottom three L-AP4 concentrations, Percent L-AP4/pcDNA/DMSO Max; for Maximal Resp ± SEM, Elfn1: average response at top two L-AP4 concentrations, normalized to L-AP4 max with pcDNA/DMSO; for % inhibition Resp ± SEM, Elfn1: of maximal L-AP4 response; for IC50: compound concentration-response in presence of 600 μM L-AP4 (EC80), read-out: compound pIC50 ± SEM, Elfn1 (converted); for compound Min Resp ± SEM, Elfn1: minimal curve fit response, 600 μM L-AP4, maximal inhibition at 30 μM compound, normalized to account for lower agonist max with Elfn1; for Emax: HEK293, read-out: PAM Maximal response, Elfn1; for Fold potentiation, Elfn1: fold potentiation of an EC20 concentration of L-AP4
T2 construct: expressed in transfected cells; host or cells: HEK293A mGlu7/GIRK cells cocultured with HEK293A polyclonal cells stably expressing Elfn1-Myc (pcDNA3)
T2 sequence (P35400 35-915): as above
T2 sequence (Q8C8T7 26-828 partner): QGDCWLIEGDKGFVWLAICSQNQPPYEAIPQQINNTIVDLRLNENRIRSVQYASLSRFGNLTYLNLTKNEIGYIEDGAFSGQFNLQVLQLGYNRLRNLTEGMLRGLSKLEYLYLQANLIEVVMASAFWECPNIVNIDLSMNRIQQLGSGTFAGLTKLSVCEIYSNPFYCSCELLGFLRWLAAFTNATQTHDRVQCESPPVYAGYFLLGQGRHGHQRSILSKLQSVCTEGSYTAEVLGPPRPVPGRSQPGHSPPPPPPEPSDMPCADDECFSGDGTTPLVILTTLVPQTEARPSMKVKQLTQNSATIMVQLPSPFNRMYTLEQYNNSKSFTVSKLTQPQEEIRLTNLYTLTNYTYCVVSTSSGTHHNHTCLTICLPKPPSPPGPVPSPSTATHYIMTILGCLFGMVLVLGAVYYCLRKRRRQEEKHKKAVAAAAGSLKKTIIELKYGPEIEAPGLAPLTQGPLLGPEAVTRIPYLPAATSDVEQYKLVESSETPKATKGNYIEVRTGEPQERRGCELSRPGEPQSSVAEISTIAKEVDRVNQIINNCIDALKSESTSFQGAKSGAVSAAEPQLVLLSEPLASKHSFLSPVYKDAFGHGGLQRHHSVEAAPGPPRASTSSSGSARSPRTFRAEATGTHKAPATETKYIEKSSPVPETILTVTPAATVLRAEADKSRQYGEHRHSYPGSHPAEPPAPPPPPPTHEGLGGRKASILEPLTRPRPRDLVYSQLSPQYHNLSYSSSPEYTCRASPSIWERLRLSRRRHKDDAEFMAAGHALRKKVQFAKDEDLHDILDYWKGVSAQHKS
Excerpt: as §1, §2
HEK293A polyclonal cells stably expressing either Elfn1 or empty vector were passaged in media (Dulbecco’s modified Eagle medium (DMEM), supplemented with 10% fetal bovine serum (FBS), 20 mM N-(2-hydroxyethyl)-piperazine-N′-ethanesulfonic acid (HEPES), 1 mM Na pyruvate, 2 mM Glutamax, 0.1 mM nonessential amino acids, 1× antibiotic/antimycotic) under G418 (700 μg/mL) selection to maintain expression.
as §3
as §4, with “NJ). Data were acquired at 1 Hz (excitation 470 ± 20 nm, emission 540 ± 30 nm) for 10 s, followed by the addition of 20 μL/well of 10 μM NAM/PAM/DMSO, followed by an additional 4 min of data collection.” for “NJ).”, “Prism.” for “Prism. Basal activity was calculated with data points at the three lowest test concentrations. Maximum activity was calculated with data points at two highest concentrations. All experiments were replicated at least three times in duplicate or triplicate.”

[3] = 10 μM NAM, three lowest L-AP4 concentrations, normalized to mGlu7/pcDNA3 vehicle L-AP4 max
[4] = 10 μM PAM, L-AP4 CRC, normalized to percent L-AP4 response with pcDNA and DMSO
[5] = PAM concentration-response at an EC20 concentration of L-AP4

CCc1nc2c(o1)CC(c1ccc(C)cc1C)CC2=O (centres unmarked) [ADX71743, reference compound]
baseline Resp ± SEM, pcDNA [1]: –21.5 ± 2.0 %
Maximal Resp ± SEM, pcDNA [1]: –0.08 ± 1.4 %
response below baseline at inactive L-AP4 concentrations [1]: inverse agonist activity
% inhibition Resp ± SEM, pcDNA [1]: –0.11 ± 1.4%
IC50 [1]: 195 nM
compound Min Resp ± SEM, pcDNA [1]: –32.9 ± 8.0
baseline Resp ± SEM, Elfn1 [2]: –12.7 ± 2.9 %
Maximal Resp ± SEM, Elfn1 [2]: –10.1 ± 1.7 %
% inhibition Resp ± SEM, Elfn1 [2]: –22.4 ± 3.4 %
IC50 [2]: 141 nM
compound Min Resp ± SEM, Elfn1 [2]: –28.5 ± 5.5

COc1ccc(-c2noc(-c3cc(Cl)ccc3-n3cncn3)n2)cc1OC [VU6017743]
baseline response ± SEM, pcDNA [1, 3]: –11.5 ± 4.7
baseline response ± SEM, Elfn1 [2, 3]: –5.7 ± 5.9

O=c1c(Oc2ccc(I)cc2)coc2cc(O)ccc12 [XAP044, reference compound]
baseline Resp ± SEM, pcDNA [1]: –11.4 ± 4.8 %
Maximal Resp ± SEM, pcDNA [1]: 1.7 ± 3.6 %
response below baseline at inactive L-AP4 concentrations [1]: inverse agonist activity
% inhibition Resp ± SEM, pcDNA [1]: 1.6 ± 3.5%
IC50 [1]: 1660 nM
compound Min Resp ± SEM, pcDNA [1]: 6.9 ± 6.5
baseline Resp ± SEM, Elfn1 [2]: –6.5 ± 1.3 %
Maximal Resp ± SEM, Elfn1 [2]: –13.2 ± 1.7 %
% inhibition Resp ± SEM, Elfn1 [2]: –30.4 ± 2.9 %
IC50 [2]: 380 nM
compound Min Resp ± SEM, Elfn1 [2]: 2.5 ± 8.4

COC(=O)c1ccc(-n2c(C)cc(C(=O)CSc3ccc(NC(C)=O)cc3)c2C)cc1 [VU0155094]
baseline response ± SEM, pcDNA [1, 4]: 6.4±2.3%
Emax [1]: 138 ± 5.2%
EC50 ([1]; read-out: PAM pEC50, pcDNA (converted)): 3550 nM
Fold potentiation, pcDNA [1]: 4.4±0.3 fold
baseline response ± SEM, Elfn1 [2, 4]: 1.0±1.7%
Emax [2, 5]: 66.3 ± 3.6%
EC50 ([2]; PAM concentration-response at an EC20 concentration of L-AP4, read-out: PAM pEC50, Elfn1 (converted)): 2820 nM
Fold potentiation, Elfn1 [2]: 2.7±0.2 fold

COc1cc(C(=O)Nc2cc(OC(F)(F)F)ccc2-n2cncn2)ccc1OCC1CC1 [VU6012962, N-(2-(1 H-1,2,4-triazol-1-yl)-5-(trifluoromethoxy)phenyl)-4-(cyclopropylmethoxy)-3-methox ybenzamide]
baseline response ± SEM, pcDNA [1, 3]: –19.1 ± 2.4
baseline response ± SEM, Elfn1 [2, 3]: –8.1 ± 2.0

COc1ccc(C(=O)Nc2cc(OC(F)(F)F)ccc2-n2cncn2)cc1OC [VU6010608]
baseline response ± SEM, pcDNA [1, 3]: –14.5 ± 2.6
baseline response ± SEM, Elfn1 [2, 3]: –9.0 ± 0.9

COc1cc(F)cc2c(N3CCN(c4ccccc4F)CC3)c(C#N)cnc12 [VU6027459]
baseline response ± SEM, pcDNA [1, 4]: 25.6±12.0%
Emax [1]: 75.8 ± 5.2%
EC50 ([1]; PAM pEC50, pcDNA): 1000 nM
Fold potentiation, pcDNA [1]: 3.0±0.4 fold
baseline response ± SEM, Elfn1 [2, 4]: 12.5±8.4%
Emax [2, 5]: 44.1 ± 4.5%
EC50 ([2]; PAM pEC50, Elfn1, PAM concentration-response at an EC20 concentration of L-AP4): 1620 nM
Fold potentiation, Elfn1 [2]: 2.0±0.2 fold

COc1ccc(-c2cnc(-c3cc(OC(F)(F)F)ccc3-n3cncn3)o2)cc1OC [VU6018226]
baseline response ± SEM, pcDNA [1, 3]: –6.6 ± 1.8
baseline response ± SEM, Elfn1 [2, 3]: 0.2 ± 3.5

CCCOc1ccc(C(=O)Nc2cc(OC(F)(F)F)ccc2-n2cncn2)cc1OC [VU6010953]
baseline response ± SEM, pcDNA [1, 3]: –12.5 ± 2.2
baseline response ± SEM, Elfn1 [2, 3]: –8.1 ± 1.1

COc1ccc(-c2nnc(-c3cc(OC(F)(F)F)ccc3-c3cn[nH]c3)o2)cc1OC [VU6019282]
baseline response ± SEM, pcDNA [1, 3]: –5.3 ± 3.7
baseline response ± SEM, Elfn1 [2, 3]: –0.7 ± 4.5
